Source: patent US20250230165A1, “HETEROCYCLIC COMPOUNDS FOR USE IN THE TREATMENT OF CANCER” (ARTIOS PHARMA LIMITED, priority 2021, published 2025)

Target: T1, Human Polθ polymerase domain (aa1820-2590) (Homo sapiens, UniProt O75417)
T1 construct: Human Polθ polymerase domain (aa1820-2590) was expressed in E. coli; made in house; host or cells: E. coli
T1 sequence (O75417 1820-2590): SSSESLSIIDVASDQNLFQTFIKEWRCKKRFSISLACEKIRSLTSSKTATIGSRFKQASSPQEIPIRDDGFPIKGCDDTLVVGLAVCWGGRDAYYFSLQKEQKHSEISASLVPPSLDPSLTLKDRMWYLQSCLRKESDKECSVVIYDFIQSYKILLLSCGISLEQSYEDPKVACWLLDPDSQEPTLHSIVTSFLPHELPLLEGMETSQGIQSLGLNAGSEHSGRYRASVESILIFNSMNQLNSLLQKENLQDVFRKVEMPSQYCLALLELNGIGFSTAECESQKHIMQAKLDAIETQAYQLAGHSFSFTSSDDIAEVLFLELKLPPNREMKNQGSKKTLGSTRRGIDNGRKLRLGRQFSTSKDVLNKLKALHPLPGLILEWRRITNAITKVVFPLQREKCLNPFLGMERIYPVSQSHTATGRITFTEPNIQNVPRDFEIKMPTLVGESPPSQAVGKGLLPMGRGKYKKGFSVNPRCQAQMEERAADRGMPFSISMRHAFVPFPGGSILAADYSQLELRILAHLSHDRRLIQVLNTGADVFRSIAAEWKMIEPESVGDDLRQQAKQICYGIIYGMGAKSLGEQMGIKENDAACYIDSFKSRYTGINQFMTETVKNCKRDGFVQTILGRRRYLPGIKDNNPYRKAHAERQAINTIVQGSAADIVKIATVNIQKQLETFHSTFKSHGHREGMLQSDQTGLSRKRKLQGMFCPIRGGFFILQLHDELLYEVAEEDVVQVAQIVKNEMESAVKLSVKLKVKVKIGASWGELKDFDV
Assay: Polθ Polymerase Domain Kinact/KI Assay (PicoGreen)
Type: biochemical
Conditions: 0.8 nM Polθ, 100 nM DNA substrate, kobs vs [I] fit for 2-step covalent inhibitor
Outline: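 Time-dependent inhibition was followed with 0.8 nM polymerase domain, 100 nM DNA substrate and […], reactions quenched over 60 min and quantified by PicoGreen. Kinact and KI came from a secondary plot of kobs against inhibitor concentration.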

| Structure (SMILES) | Kinact/Kl |
| --- | --- |
| C=CC(=O)N1CC(N2CC[C@H](CN3C[C@H]4CC(=O)N(c5cc(C(F)(F)F)cc(C)n5)[C@@H]4C(=O)N(C)c4cccc(Cl)c43)C2)C1 [Example 218, (3aR,11aS)-5-(((S)-1-(1-acryloylazetidin-3-yl)pyrrolidin-3-yl)methyl)-6-chloro-10-methyl-1-(6-methyl-4-(trifluoromethyl)pyridin-2-yl)-1,3a,4,5,10,11a-hexahydro-2H-benzo[b]pyrrolo [2,3-f][1,4] diazocine-2,11 (3H)-dione] | 1.62e+06 M⁻¹ s⁻¹ |
| C=CC(=O)N1CC(N2CC[C@@H](CN3C[C@H]4CC(=O)N(c5cc(C(F)(F)F)cc(C)n5)[C@@H]4C(=O)N(C)c4cccc(Cl)c43)C2)C1 [Example 219, (3aR,11aS)-5-(((R)-1-(1-acryloylazetidin-3-yl)pyrrolidin-3-yl)methyl)-6-chloro-10-methyl-1-(6-methyl-4-(trifluoromethyl)pyridin-2-yl)-1,3a,4,5,10,11a-hexahydro-2H-benzo[b]pyrrolo [2,3-f][1,4] diazocine-2,11(3H)-dione] | 560000 M⁻¹ s⁻¹ |
| C=CC(=O)N1CC(N2CC[C@@H](CCN3C[C@H]4CC(=O)N(c5cc(C(F)(F)F)cc(C)n5)[C@@H]4C(=O)N(C)c4cccc(Cl)c43)C2)C1 [Example 220, (3aR,11aS)-5-(2-((S)-1-(1-acryloylazetidin-3-yl)pyrrolidin-3-yl)ethyl)-6-chloro-10-methyl-1-(6-methyl-4-(trifluoromethyl)pyridin-2-yl)-1,3a,4,5,10,11a-hexahydro-2H-benzo[b]pyrrolo [2,3-f][1,4] diazocine-2,11(3H)-dione] | 3.66e+06 M⁻¹ s⁻¹ |
| C=CC(=O)N1CC(N2CC[C@H](CCN3C[C@H]4CC(=O)N(c5cc(C(F)(F)F)cc(C)n5)[C@@H]4C(=O)N(C)c4cccc(Cl)c43)C2)C1 [Example 221, (3aR,11aS)-5-(2-((R)-1-(1-acryloylazetidin-3-yl)pyrrolidin-3-yl)ethyl)-6-chloro-10-methyl-1-(6-methyl-4-(trifluoromethyl)pyridin-2-yl)-1,3a,4,5,10,11a-hexahydro-2H-benzo[b] pyrrolo[2,3-f] [1,4]diazocine-2,11(3H)-dione] | 3.03e+06 M⁻¹ s⁻¹ |
| C=CC(=O)N1CCC(N2CCC(CN3C[C@H]4CC(=O)N(c5cc(C(F)(F)F)cc(C)n5)[C@@H]4C(=O)N(C)c4cccc(Cl)c43)CC2)C1 (stereo partly drawn) [Example 222, (3aR,11aS)-5-((1-(1-acryloylpyrrolidin-3-yl)piperidin-4-yl)methyl)-6-chloro-10-methyl-1-(6-methyl-4-(trifluoromethyl)pyridin-2-yl)-1,3a,4,5,10,11a-hexahydro-2H-benzo[b]pyrrolo [2,3-f][1,4] diazocine-2,11(3H)-dione] | 2.04e+06 M⁻¹ s⁻¹ |
| C=CC(=O)N1CC(N2CC[C@H](CN3C[C@H]4CC(=O)N(c5cc(C(F)(F)F)cc(C)n5)[C@@H]4C(=O)N(C)c4cccc(C)c43)C2)C1 [Example 223, (3aR,11aS)-5-(((S)-1-(1-acryloylazetidin-3-yl)pyrrolidin-3-yl)methyl)-6,10-dimethyl-1-(6-methyl-4-(trifluoromethyl)pyridin-2-yl)-1,3a,4,5,10,11a-hexahydro-2H-benzo[b]pyrrolo [2,3-f][1,4] diazocine-2,11(3H)-dione] | 1.62e+06 M⁻¹ s⁻¹ |
| C=CC(=O)N1CC(N2CC[C@@H](CN3C[C@H]4CC(=O)N(c5cc(C(F)(F)F)cc(C)n5)[C@@H]4C(=O)N(C)c4cccc(C)c43)C2)C1 [Example 224, (3aR,11aS)-5-(((R)-1-(1-acryloylazetidin-3-yl)pyrrolidin-3-yl)methyl)-6,10-dimethyl-1-(6-methyl-4-(trifluoromethyl)pyridin-2-yl)-1,3a,4,5,10,11a-hexahydro-2H-benzo[b]pyrrolo [2,3-f][1,4] diazocine-2,11(3H)-dione] | 4.21e+06 M⁻¹ s⁻¹ |
